Usually GI50 stands for the concentration giving 50% growth inhibition.

This is an account of results in ChEMBL document CHEMBL1201862, “PubChem BioAssay data set” (2004).

What all share (experiment): DTP human tumour cell line panel, 48 h
Experiment [1] relates to RXF 631.
In experiment [2] the test system is LXFL 529.
For experiment [3], the system named is M19-MEL.
In experiment [4] the test system is SNB-78.
Experiment [5] concerns KM-20L2.
Experiment [6] deals with DMS-114.
Experiment [7] relates to DMS-273.
Experiment [8] relates to XF498.
Experiment [9] relates to HOP-18.

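Grown in 96-well plates, cells were treated for 48 hours with each compound at five concentrations. Insufficient inhibition: endpoint recorded as highest concentration tested. GI50 is the concentration that inhibits growth by half.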 Calls of active or inactive are those of the source. No stated cut-off is given here; in the data, active = GI50 up to about 1.1 µM and inactive = higher. Where a SMILES comes first, the peptide text is derived from it. [ ]: non-standard residue; d: D form. 2Nal = N[CH](Cc1ccc2ccccc2c1)C(=O)O Some results are limits rather than exact numbers.

In the case of `CCOC(=O)C(=O)CC1=Nc2ccccc2SC(c2cccc(C)c2)C1` (configuration not stated), the GI50 is 16 µM (inactive) in experiment [1]; 18.1 µM (inactive) in experiment [2]; 18.8 µM (inactive) in experiment [3]; 16 µM (inactive) in experiment [4]; 17.9 µM (inactive) in experiment [5]; 14.9 µM (inactive) in [6]. Moreover, the GI50 in experiment [7] is 19.6 µM (inactive).
Regarding `O=C(O)c1ccc([C@@H]2C(=O)N(O)[C@@H]3C=CC[C@@H]32)cc1`, the GI50 in [1], in [8], in experiment [2], in experiment [3], in experiment [4] and in experiment [6] was > 100 µM (inactive) each time. Moreover, the GI50 in experiment [7] is > 100 µM (inactive).
Take `N#CC(C(=O)CCCC(=O)Nc1ccc(Cl)cc1Cl)c1ccccc1` (configuration not stated): the GI50 in experiment [1], in experiment [3], in experiment [4], in [5], in experiment [9] and in [6] was > 100 µM (inactive) each time. Further, the GI50 in experiment [7] was > 100 µM (inactive).
With `COc1cc(C2C(C(=O)Nc3ccc(Cl)c(Cl)c3)=C(C)NC(C)=C2C(=O)Nc2ccc(Cl)c(Cl)c2)ccc1O`, the GI50 in [8] is 17.4 µM (inactive); in [2], 9.27 µM (inactive); in experiment [3], 14.5 µM (inactive); in experiment [4] it was 14.9 µM (inactive); in experiment [5], 19.8 µM (inactive); in experiment [6] it was 6.49 µM (inactive).
With `CCOC(=O)C(Cc1ccccc1)NC(=O)c1ccc(/N=N/N(C)C)cc1` (configuration not stated), the GI50 in [2], in experiment [3], in [6] and in [7] was > 100 µM (inactive) throughout.
On to `COC(=O)C1=CCC2c3[nH]c4ccccc4c3CCN2C1` (configuration not stated), for which the GI50 in experiment [2], in experiment [3], in [5], in experiment [6] and in experiment [7] was > 354 µM (inactive) each time.
In the case of `C/C=C(/CCCCNCCCC)[Si](C)(C)C`, the GI50 in [1] is 15 µM (inactive); in experiment [8] it was 11.3 µM (inactive); in [2], 15.9 µM (inactive); in experiment [3], 16.8 µM (inactive); in experiment [4], 14.2 µM (inactive); in [5] it was 7.52 µM (inactive). Also, the values for the GI50 in experiment [9], in experiment [6] and in experiment [7] were > 10 µM (inactive), 14.6 µM (inactive) and 18.4 µM (inactive), respectively.
Regarding `Cn1cc(NC(=O)c2cc(NC(=O)Nc3cc(C(=O)Nc4cc(C(=O)NCCC(=N)N)n(C)c4)n(C)c3)cn2C)cc1C(=O)NCCC(=N)N`, the GI50 was 23.1 µM (inactive) in experiment [1]; 21 µM (inactive) in [8]; 56.5 µM (inactive) in [2]; 20.4 µM (inactive) in [3]; 38.5 µM (inactive) in experiment [4]; 60.5 µM (inactive) in [5]. Further, the GI50 is 71.4 µM (inactive) in experiment [9], 49.3 µM (inactive) in experiment [6] and 13.6 µM (inactive) in experiment [7].
As for `Nc1nc2c(N)cc(C(F)(F)F)cc2nc1-c1ccccc1`, the GI50 is 50.2 µM (inactive) in [8]; 64.9 µM (inactive) in [2]; > 100 µM (inactive) in experiment [3]; > 100 µM (inactive) in experiment [4]; > 100 µM (inactive) in experiment [5]; > 100 µM (inactive) in experiment [9]. The figures for the GI50 in [6] and in [7] were 86.5 µM (inactive) and > 100 µM (inactive), respectively.
For the compound `CC(C)(C)OC(=O)N[C@H]1CC(=O)c2ccccc2N(CC(=O)O)C1=O`, the GI50 in [1], in experiment [2], in [3], in [5], in experiment [9] and in experiment [6] was > 100 µM (inactive) each time. The GI50 in experiment [7] is > 100 µM (inactive).
As for `COC(=O)/C(C#N)=C1\NN=NN1c1ccc(OC)cc1`, the GI50 in experiment [1], in experiment [2], in [3], in experiment [4], in experiment [9] and in experiment [6] was > 100 µM (inactive) in each case. Moreover, the GI50 in [7] is > 100 µM (inactive).
Take `COc1ccc2nccc(NCCCN3CCN(CCCNc4ccnc5ccc(OC)cc45)CC3)c2c1`: the concentration for 50% growth inhibition (GI50) in experiment [8] is 0.201 µM (active); in experiment [2] it was 0.179 µM (active); in experiment [3], 0.652 µM (active); in experiment [4], 0.873 µM (active); in experiment [5] it was 0.703 µM (active); in experiment [6] it was 0.128 µM (active). The GI50 in experiment [7] was 0.418 µM (active).
`CC(=O)O[C@]12CCC[C@H]1C1(O)C(O)CCC[C@H]12` (some centres not stated): the GI50 in [8], in [2], in experiment [3], in experiment [4], in experiment [5] and in experiment [9] was > 100 µM (inactive) each time. In addition, the GI50 in experiment [6] and in experiment [7] was > 100 µM (inactive) each time.
For `CCc1cccc(C(C)C)c1NC(=O)C(=O)C1C(=O)NC(=O)NC1=O`, the GI50 in experiment [8], in [2], in experiment [3], in experiment [5], in [9] and in experiment [6] was > 100 µM (inactive) throughout.
As for `CCOC(OC1=C(C#N)CCC1)C(C)[Se]c1ccccc1` (configuration not stated), the GI50 in experiment [1] is 11.1 µM (inactive); in [2] it was 17.2 µM (inactive); in experiment [3] it was 14.8 µM (inactive); in [4] it was 29.8 µM (inactive); in [5] it was 45.4 µM (inactive); in [9] it was 25.4 µM (inactive). The GI50 in [6] was 4.06 µM (inactive); in experiment [7], 14.5 µM (inactive).
In the case of `Cc1ccc(-n2c(=S)[nH]c3ccc(Br)cc3c2=O)cc1`, the GI50 in experiment [8], in [2], in [3], in [5], in [9] and in [6] was > 100 µM (inactive) throughout.
As to `CC1CC(=O)C(C(O)CC2CC(=O)N(c3ccccc3)C(=O)C2)C(C)C1` (configuration not stated), the GI50 in experiment [2], in experiment [3], in experiment [4], in experiment [5], in experiment [9] and in [6] was > 100 µM (inactive) in each case. The GI50 in [7] is > 100 µM (inactive).
Turning to `CCCCCCCCOCC(CO)OCCCCCCCC` (configuration not stated), the GI50 in [1] was 17.7 µM (inactive); in experiment [2] it was 18.9 µM (inactive); in [3], 20 µM (inactive); in experiment [5], > 10 µM (inactive); in [9] it was 11.7 µM (inactive); in experiment [6] it was 21.2 µM (inactive). The GI50 in experiment [7] was 18.7 µM (inactive).
Turning to `O=C(CSc1nc(-c2ccccc2)c(-c2ccccc2)[nH]1)NNC(=S)Nc1ccccc1`, the GI50 in [8] is 61.9 µM (inactive); in experiment [2] it was > 100 µM (inactive); in experiment [3] it was 91.6 µM (inactive); in experiment [4], > 100 µM (inactive); in experiment [5] it was > 100 µM (inactive); in experiment [6] it was 57 µM (inactive). The GI50 in experiment [7] was 92.7 µM (inactive).
`COC(=O)C(Cc1cc(OC)c(OC)c(OC)c1)c1ccc(OC)cc1` (configuration not stated): the GI50 in [1] was > 100 µM (inactive); in experiment [2] it was 54.7 µM (inactive); in [3] it was > 100 µM (inactive); in [4], > 100 µM (inactive); in [5] it was > 100 µM (inactive); in [9], > 100 µM (inactive). For the same compound, the GI50 was 62.4 µM (inactive) in [6] and > 100 µM (inactive) in [7].
For the compound `CC(NC(=O)C(N)Cc1ccccc1)C(=O)NC(Cc1ccc(O)cc1)C(=O)NC(Cc1c[nH]c2ccccc12)C(=O)NC(CCCCN)C(=O)NC(C(=O)NC(C)C(=O)NC(Cc1ccc2ccccc2c1)C(N)=O)C(C)C` (configuration not stated) (H-FAYWKVA[2Nal]-NH2; configuration not given here), the GI50 in experiment [8] is 21.4 µM (inactive); in experiment [3], 27 µM (inactive); in experiment [4] it was 44.3 µM (inactive); in experiment [5], 27.1 µM (inactive); in experiment [9] it was 23.9 µM (inactive); in experiment [6], 31.7 µM (inactive). The GI50 in experiment [7] is 24.6 µM (inactive).
